Laboratory results reported in patent US20230233569A1 (Revolution Medicines, Inc., priority 2020, published 2023).

Legend:
Assay in all cases: Ras-Raf disruption / FRET / MOA assay (BRAF RBD)
Format in all cases: biochemical
KRAS G12D = KRAS G12D (Homo sapiens, UniProt P01116+P62937, G12D); conditions: Ras-Raf disruption, with Cyclophilin A; read-out: KRAS G12D FRET data IC50
How it was run: (§1)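 Compound-induced Ras–Cyclophilin A ternary complex disrupting BRAF RBD binding, read as IC50 from reduced TR-FRET ratio relative to DMSO. Final: Ras-GMPPNP 12.5 nM, BRAF RBD 50 nM, Cyclophilin A 25 μM, top compound 30 μM (3-fold, 10 points); 3 h at 25 °C, then 1.5 h with detection antibodies.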

KRAS G12S = KRAS G12S (Homo sapiens, UniProt P01116+P62937, G12S); conditions: Ras-Raf disruption, with Cyclophilin A; read-out: KRAS G12S FRET data IC50
Sequence of KRAS G12S (P01116 1-169 isoform P01116-2 G12S limits assumed): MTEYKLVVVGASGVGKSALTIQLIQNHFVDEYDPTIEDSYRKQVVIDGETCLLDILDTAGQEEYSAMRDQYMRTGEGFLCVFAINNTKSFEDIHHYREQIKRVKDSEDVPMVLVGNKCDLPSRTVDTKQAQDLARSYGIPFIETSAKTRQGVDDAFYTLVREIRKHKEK
Sequence of KRAS G12S (P62937 whole entry): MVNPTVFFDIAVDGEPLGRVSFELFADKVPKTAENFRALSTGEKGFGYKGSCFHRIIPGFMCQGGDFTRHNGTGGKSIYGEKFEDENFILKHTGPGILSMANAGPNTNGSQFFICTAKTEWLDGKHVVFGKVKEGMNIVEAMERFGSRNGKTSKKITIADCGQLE
How it was run: as §1

KRAS G12V = KRAS G12V (Homo sapiens, UniProt P01116+P62937, G12V); conditions: Ras-Raf disruption, with Cyclophilin A; read-out: KRAS G12V FRET data IC50
Sequence of KRAS G12V (P01116 1-169 isoform P01116-2 G12V limits assumed): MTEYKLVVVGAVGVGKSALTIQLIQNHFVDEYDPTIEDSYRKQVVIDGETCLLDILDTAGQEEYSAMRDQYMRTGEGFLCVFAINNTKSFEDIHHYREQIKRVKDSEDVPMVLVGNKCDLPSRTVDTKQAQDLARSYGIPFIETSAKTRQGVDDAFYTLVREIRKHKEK
Sequence of KRAS G12V (P62937 whole entry): as the sequence (P62937 whole entry) above
How it was run: as §1

KRAS G13C = KRAS G13C (Homo sapiens, UniProt P01116+P62937, G13C); conditions: Ras-Raf disruption, with Cyclophilin A; read-out: KRAS G13C FRET data IC50
Sequence of KRAS G13C (P01116 1-169 isoform P01116-2 G13C limits assumed): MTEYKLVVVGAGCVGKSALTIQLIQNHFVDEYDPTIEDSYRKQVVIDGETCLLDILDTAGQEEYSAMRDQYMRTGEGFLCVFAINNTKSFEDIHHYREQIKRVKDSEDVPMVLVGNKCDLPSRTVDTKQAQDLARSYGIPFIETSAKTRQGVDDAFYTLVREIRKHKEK
Sequence of KRAS G13C (P62937 whole entry): as the sequence (P62937 whole entry) above
How it was run: as §1

KRAS G13D = KRAS G13D (Homo sapiens, UniProt P01116+P62937, G13D); conditions: Ras-Raf disruption, with Cyclophilin A; read-out: KRAS G13D FRET data IC50
Sequence of KRAS G13D (P01116 1-169 isoform P01116-2 G13D limits assumed): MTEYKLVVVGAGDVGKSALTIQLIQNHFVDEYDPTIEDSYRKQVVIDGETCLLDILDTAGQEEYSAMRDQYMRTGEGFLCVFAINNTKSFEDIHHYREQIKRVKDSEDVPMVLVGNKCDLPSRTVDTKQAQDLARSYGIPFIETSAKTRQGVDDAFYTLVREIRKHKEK
Sequence of KRAS G13D (P62937 whole entry): as the sequence (P62937 whole entry) above
How it was run: as §1

KRAS Q61H = KRAS Q61H (Homo sapiens, UniProt P01116+P62937, Q61H); conditions: KRAS Q61H; read-out: KRAS Q61H FRET data IC50
Sequence of KRAS Q61H (P01116 1-169 isoform P01116-2 Q61H limits assumed): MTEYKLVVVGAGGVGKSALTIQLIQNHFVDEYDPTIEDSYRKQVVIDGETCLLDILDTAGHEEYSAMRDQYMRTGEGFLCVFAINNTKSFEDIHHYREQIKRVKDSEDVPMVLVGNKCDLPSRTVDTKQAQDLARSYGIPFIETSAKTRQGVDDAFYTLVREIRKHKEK
Sequence of KRAS Q61H (P62937 whole entry): as the sequence (P62937 whole entry) above
How it was run: as §1

KRAS WT = KRAS WT (Homo sapiens, UniProt P01116+P62937); conditions: Ras-Raf disruption, with Cyclophilin A; read-out: KRAS WT FRET data IC50
Sequence of KRAS WT (P01116 1-169 isoform P01116-2 limits assumed): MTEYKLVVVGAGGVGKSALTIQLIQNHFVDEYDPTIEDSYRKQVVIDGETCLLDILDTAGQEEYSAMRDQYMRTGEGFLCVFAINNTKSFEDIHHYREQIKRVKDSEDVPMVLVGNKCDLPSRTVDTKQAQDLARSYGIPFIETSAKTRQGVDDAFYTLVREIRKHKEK
Sequence of KRAS WT (P62937 whole entry): as the sequence (P62937 whole entry) above
How it was run: as §1

NRAS G12C = NRAS G12C (Homo sapiens, UniProt P01111+P62937, G12C); conditions: NRAS G12C; read-out: NRAS G12C FRET data IC50
Sequence of NRAS G12C (P01111 whole entry G12C): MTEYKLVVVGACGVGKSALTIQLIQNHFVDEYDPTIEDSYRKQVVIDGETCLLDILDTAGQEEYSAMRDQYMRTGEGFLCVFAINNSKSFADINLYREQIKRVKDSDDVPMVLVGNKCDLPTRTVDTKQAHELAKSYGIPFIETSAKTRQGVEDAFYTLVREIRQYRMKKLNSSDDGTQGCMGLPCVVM
Sequence of NRAS G12C (P62937 whole entry): as the sequence (P62937 whole entry) above
How it was run: as §1

NRAS Q61K = NRAS Q61K (Homo sapiens, UniProt P01111+P62937, Q61K); conditions: NRAS Q61K; read-out: NRAS Q61K FRET data IC50
Sequence of NRAS Q61K (P01111 whole entry Q61K): as the sequence (P01111 whole entry G12C) above, with C12G, Q61K counted along it
Sequence of NRAS Q61K (P62937 whole entry): as the sequence (P62937 whole entry) above
How it was run: as §1

NRAS Q61R = NRAS Q61R (Homo sapiens, UniProt P01111+P62937, Q61R); conditions: NRAS Q61R; read-out: NRAS Q61R FRET data IC50
Sequence of NRAS Q61R (P01111 whole entry Q61R): as the sequence (P01111 whole entry G12C) above, with C12G, Q61R counted along it
Sequence of NRAS Q61R (P62937 whole entry): as the sequence (P62937 whole entry) above
How it was run: as §1

NRAS WT = NRAS WT (Homo sapiens, UniProt P01111+P62937); conditions: NRAS WT; read-out: NRAS WT FRET data IC50
Sequence of NRAS WT (P01111 whole entry): as the sequence (P01111 whole entry G12C) above, with C12G counted along it
Sequence of NRAS WT (P62937 whole entry): as the sequence (P62937 whole entry) above
How it was run: as §1

KRAS G12C = KRAS G12C (Homo sapiens, UniProt P01116+P62937, G12C); conditions: Ras-Raf disruption, with Cyclophilin A; read-out: KRAS G12C FRET data IC50
Sequence of KRAS G12C (P01116 1-169 isoform P01116-2 G12C limits assumed): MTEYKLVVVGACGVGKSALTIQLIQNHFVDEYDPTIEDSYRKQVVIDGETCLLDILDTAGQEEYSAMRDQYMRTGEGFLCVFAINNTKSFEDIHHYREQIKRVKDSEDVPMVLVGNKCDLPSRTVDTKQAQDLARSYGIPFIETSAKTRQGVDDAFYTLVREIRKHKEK
Sequence of KRAS G12C (P62937 whole entry): as the sequence (P62937 whole entry) above
How it was run: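 TR-FRET read-out after 1.5 h with anti-His Eu-W1024 (10 nM) and anti-GST APC (50 nM), following 3 h at 25 °C of compound (top 30 μM, 3-fold, 10 points) with 25 μM Cyclophilin A, 12.5 nM GMPPNP-loaded K-Ras G12C and 50 nM BRAF RBD; IC50 reported.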

Sequence of KRAS G12D (P01116 1-169 isoform P01116-2 G12D limits assumed): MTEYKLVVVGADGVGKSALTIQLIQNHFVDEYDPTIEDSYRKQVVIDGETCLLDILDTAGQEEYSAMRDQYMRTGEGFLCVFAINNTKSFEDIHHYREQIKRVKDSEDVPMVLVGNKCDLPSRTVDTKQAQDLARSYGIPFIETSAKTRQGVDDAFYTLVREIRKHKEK
Sequence of KRAS G12D (P62937 whole entry): as the sequence (P62937 whole entry) above

Work on `CCn1c(-c2cccnc2[C@H](C)OC)c2c3cc(ccc31)-c1csc(n1)C[C@H](NC(=O)[C@H](C(C)C)N(C)C(=O)N1CC[C@H](N(C)C(=O)[C@H]3CN3)C1)C(=O)N1CCC[C@H](N1)C(=O)OCC(C)(C)C2` (atropisomer, axis not shown) [Example 228] yielded an IC50 (KRAS G12D) of 1000 to 10000 nM, an IC50 (KRAS G12S) of 100 to 1000 nM and an IC50 (KRAS G12V) of 100 to 1000 nM. For the same compound, the IC50 (KRAS G13C) was 100 to 1000 nM, the IC50 (KRAS G13D) was 100 to 1000 nM and the IC50 (KRAS Q61H) was 10 to 100 nM. It also gave an IC50 (KRAS WT) of 100 to 1000 nM, an IC50 (NRAS G12C) of 10 to 100 nM and an IC50 (NRAS Q61K) of 10 to 100 nM. The IC50 (NRAS Q61R) was 100 to 1000 nM, the IC50 (NRAS WT) was 100 to 1000 nM and the IC50 (KRAS G12C) was 100 to 1000 nM.

`CCn1c(-c2cccnc2[C@H](C)OC)c2c3cc(ccc31)-c1csc(n1)C[C@H](NC(=O)[C@H](C(C)C)N(C)C(=O)N1CC[C@H](N(C)C(=O)[C@@H]3CN3)C1)C(=O)N1CCC[C@H](N1)C(=O)OCC(C)(C)C2` (atropisomer, axis not shown) [Example 229] showed an IC50 (KRAS G12D) of 1000 to 10000 nM, an IC50 (KRAS G12S) of 100 to 1000 nM and an IC50 (KRAS G12V) of 100 to 1000 nM. The IC50 (KRAS G13C) was 100 to 1000 nM, the IC50 (KRAS G13D) was 100 to 1000 nM and the IC50 (KRAS Q61H) was 10 to 100 nM. For the same compound, the IC50 (KRAS WT) was 100 to 1000 nM, the IC50 (NRAS G12C) was 100 to 1000 nM and the IC50 (NRAS Q61K) was 10 to 100 nM. For the same compound, the IC50 (NRAS Q61R) was 100 to 1000 nM, the IC50 (NRAS WT) was 100 to 1000 nM and the IC50 (KRAS G12C) was 100 to 1000 nM.

For `CCn1c(-c2cccnc2[C@H](C)OC)c2c3cc(ccc31)-c1cc(O)cc(c1)C[C@H](NC(=O)[C@H](C(C)C)N(C)C(=O)[C@@H]1CCCN(C(=O)[C@H]3CN3)C1)C(=O)N1CCC[C@H](N1)C(=O)OCC(C)(C)C2` (atropisomer, axis not shown) [Example 237], the IC50 (KRAS G12D) was 100 to 1000 nM, the IC50 (KRAS G12S) was 10 to 100 nM and the IC50 (KRAS G12V) was 100 to 1000 nM. It also gave an IC50 (KRAS G13C) of 10 to 100 nM, an IC50 (KRAS G13D) of 100 to 1000 nM and an IC50 (KRAS Q61H) of 10 to 100 nM. It also gave an IC50 (KRAS WT) of 10 to 100 nM, an IC50 (NRAS G12C) of 10 to 100 nM and an IC50 (NRAS Q61K) of 100 to 1000 nM. The IC50 (NRAS Q61R) was 100 to 1000 nM, the IC50 (NRAS WT) was 10 to 100 nM and the IC50 (KRAS G12C) was 10 to 100 nM.

Work on `CCn1c(-c2cccnc2[C@H](C)OC)c2c3cc(ccc31)-c1cc(O)cc(c1)C[C@H](NC(=O)[C@H](C(C)C)N(C)C(=O)[C@H]1C[C@H]3CC[C@@H](C1)N3C(=O)[C@H]1CN1)C(=O)N1CCC[C@H](N1)C(=O)OCC(C)(C)C2` (atropisomer, axis not shown) [Example 245] yielded an IC50 (KRAS G12D) of 100 to 1000 nM, an IC50 (KRAS G12S) of 100 to 1000 nM and an IC50 (KRAS G12V) of 100 to 1000 nM. For the same compound, the IC50 (KRAS G13C) was 10 to 100 nM, the IC50 (KRAS G13D) was 100 to 1000 nM and the IC50 (KRAS Q61H) was 10 to 100 nM. The IC50 (KRAS WT) was 10 to 100 nM, the IC50 (NRAS G12C) was 10 to 100 nM and the IC50 (NRAS Q61K) was 100 to 1000 nM. For the same compound, the IC50 (NRAS Q61R) was 100 to 1000 nM, the IC50 (NRAS WT) was 10 to 100 nM and the IC50 (KRAS G12C) was 10 to 100 nM.

Work on `CCn1c(-c2cccnc2[C@H](C)OC)c2c3cc(ccc31)-c1cc(O)cc(c1)C[C@H](NC(=O)[C@H](C(C)C)N(C)C(=O)[C@H]1C[C@H]3CC[C@@H](C1)N3C(=O)[C@@H]1CN1)C(=O)N1CCC[C@H](N1)C(=O)OCC(C)(C)C2` (atropisomer, axis not shown) [Example 246] yielded an IC50 (KRAS G12D) of 1000 to 10000 nM, an IC50 (KRAS G12S) of 100 to 1000 nM and an IC50 (KRAS G12V) of 100 to 1000 nM. It also gave an IC50 (KRAS G13C) of 10 to 100 nM, an IC50 (KRAS G13D) of 100 to 1000 nM and an IC50 (KRAS Q61H) of under 10 nM. For the same compound, the IC50 (KRAS WT) was 10 to 100 nM, the IC50 (NRAS G12C) was 10 to 100 nM and the IC50 (NRAS Q61K) was 10 to 100 nM. For the same compound, the IC50 (NRAS Q61R) was 100 to 1000 nM, the IC50 (NRAS WT) was 10 to 100 nM and the IC50 (KRAS G12C) was 10 to 100 nM.

Compound `CCn1c(-c2cccnc2[C@H](C)OC)c2c3cc(ccc31)-c1cc(O)cc(c1)C[C@H](NC(=O)[C@H](C(C)C)N(C)C(=O)[C@H]1CCCCN(C(=O)[C@H]3CN3)C1)C(=O)N1CCC[C@H](N1)C(=O)OCC(C)(C)C2` (atropisomer, axis not shown) [Example 247] has an IC50 (KRAS G12D) of 1000 to 10000 nM, an IC50 (KRAS G12S) of 100 to 1000 nM and an IC50 (KRAS G12V) of 100 to 1000 nM. The IC50 (KRAS G13C) was 100 to 1000 nM, the IC50 (KRAS G13D) was 100 to 1000 nM and the IC50 (KRAS Q61H) was 100 to 1000 nM. The IC50 (KRAS WT) was 100 to 1000 nM, the IC50 (NRAS G12C) was 10 to 100 nM and the IC50 (NRAS Q61K) was 1000 to 10000 nM. It also gave an IC50 (NRAS Q61R) of 1000 to 10000 nM, an IC50 (NRAS WT) of 100 to 1000 nM and an IC50 (KRAS G12C) of 10 to 100 nM.
